Experimental data published in a melting point compilation (Tetko et al.; mined from patent text by program, amines drawn as free bases though some values may be those of a salt).

Compound	melting point
Cn1cc(C2=C(c3c4n(c5ccccc35)C[C@@H]3CN(C=O)C[C@@H]3C4)C(=O)NC2=O)c2ccccc21 (relative stereo)	316 to 318 °C
CC1(C)OC(c2ccc(S(N)(=O)=O)c(F)c2)=C(c2cc(F)cc(F)c2)C1=S	153 to 154 °C
Cc1n[nH]c(=O)c(-c2c(F)cc(F)cc2F)c1Cc1ccc(Cl)cc1	212 to 215 °C
CCCCN1C(=O)C2C(=O)N(Cc3cc(C)ccc3C)C(=O)C(C1=O)C2(C)C	159 to 161 °C
Cc1ccc(C(=O)Oc2ccc3c(OC(=O)c4ccc(C)c(O)c4)c4ccccc4cc3c2OC(=O)c2ccc(C)c(O)c2)cc1O	251 °C
CNC(=O)N(C)C(=O)N1CCN(c2ccccc2)CC1	79 to 80 °C
Cn1c(C(F)(F)F)cc(=O)n(-c2cc(OCc3ccc(C(C)(C)C)cc3)c(Cl)cc2F)c1=O	156 to 158 °C
O=C(Nc1nc[nH]n1)c1ccc(-c2ccc3nnn(Cc4ccc5ncccc5c4)c3n2)cc1F	265 to 267 °C
CCCn1c(=O)cc(S(=O)(=O)CCC)n(Cc2ccc(-c3ccccc3-c3nnn[nH]3)cc2)c1=O	128 to 135 °C
CC(COc1ccc(-n2nc3c(cc2=O)CCc2ccc(F)cc2-3)cc1)N(C)C (stereo unspecified)	178 to 180 °C
COc1ccc(S(=O)(=O)C2(C(=O)O)CCN(C(C)C)CC2)cc1	204 °C
COc1ccc(N2C(=O)N(c3ccccc3)c3nc(Nc4ccccc4)ncc3C2C)cc1 (stereo unspecified)	222 to 234 °C
CN(CCOc1ccc(OC(F)(F)F)cc1)C1CCN(c2ccc(OC[C@@]3(C)Cn4cc([N+](=O)[O-])nc4O3)cc2)CC1	186 to 188 °C
CCCCCCCCCCCCCCCCCCOC(=O)Nc1ccc(NC(=O)NS(=O)(=O)c2ccc3ccccc3c2)cc1	178 °C
CN(C)C(=O)Cc1csc(NC(=O)C(Cc2ccccc2)NC(=O)OC(C)(C)C)n1 (stereo unspecified)	139 to 140 °C
CN(C(=O)Cl)c1ccc(C(O)(C(F)(F)F)C(F)(F)F)cc1	152 to 154 °C
CC(=NO)c1ccccc1Nc1c(Cl)ccc(C)c1Cl	116 to 118 °C
Cc1c(CO)sc2cc(Br)ccc12	95 to 96 °C
CCOC(=O)N1CC(C)(C)CSC1=Nc1ccccc1C(C)C	84 to 86 °C
Nc1nc(=O)n(CCCCI)cc1F	181 to 184 °C
N#CC1CCN1C(c1ccccc1)c1ccccc1 (stereo unspecified)	104 to 105 °C

Compound	melting point
O=CC1CCN1C(c1ccccc1)c1ccccc1 (stereo unspecified)	85 to 86 °C
CC(C)(C)OC(=O)N[C@@H]1C(=O)N2C(C(=O)OC(C)(C)C)=C(C=O)CC[C@H]12	194 to 195 °C
O=C1Nc2cccnc2N(C(=O)CCN2CCN(Cc3ccccc3)CC2)c2ccccc21	205 to 207 °C
CCOC(=O)CC(NS(=O)(=O)c1cccc(-c2cccc(NC(=NC#N)NC3CC3)c2)c1)c1ccccc1 (stereo unspecified)	82 °C
CN(C)C1CCN(c2nc(N3CCOCC3)c3ncnc(N(CCCN)Cc4ccccc4)c3n2)CC1	102 to 105 °C
NC(=O)OCC(O)COc1cc(-c2cccc(Cl)c2)on1 (stereo unspecified)	149 to 150 °C
O=c1[nH]nnn1-c1cc(C(F)(F)F)cc(C(F)(F)F)c1	145 to 147 °C
Nc1c(Br)cnn1-c1c(Cl)ccc(Cl)c1Cl	129 °C
CC(C)c1ccc(S(=O)(=O)c2ccccc2)cc1S(=O)(=O)NC1CCN(C(=O)c2ccc(F)cc2)CC1	218 to 220 °C
C[C@H](O)[C@@H](Nc1ccc(C#N)c(Cl)c1Cl)c1nnc(-c2ccccc2)o1	156 °C
CCNC(=S)NS(=O)(=O)c1cc2c(cc1OC)OCCC2CNC(=O)c1cc(F)ccc1OC (stereo unspecified)	207 °C
CCCCCCCCCCOc1cc(N)cc(OCCCCCCCCCC)c1	48 to 50 °C
CN1CCN(C(=O)Cn2nnnc2S)CC1	> 250 °C
CS(=O)(=O)c1ccc(-c2oc3ccccc3c(=S)c2-c2ccc(F)cc2)cc1	203 to 205 °C
CC1(C)C(=O)NC(=O)c2cc3nc(-c4ccncc4)[nH]c3cc21	218 to 221 °C
OCc1ccc(-c2ccc3nnn(Cc4ccc5ncccc5c4)c3n2)cc1F	202 to 204 °C
CCCC(=O)Cc1cc(OC)ccc1NC(=O)OC(C)(C)C	77 to 78 °C
CC(C)c1nc(-c2ncn3c2CN(C(=O)N2CCCC2)c2c(F)cccc2-3)no1	169 to 170 °C
CC(=O)NCc1ccc(CN2CCN(c3ccc(F)cc3)CC2)cc1Cl	141 to 142 °C
COc1c(C=Cc2ccc(C=CC3=C(C#N)C(=C(C#N)C#N)OC3(C)C)s2)cc2c3c1CCCN3CCC2	201 to 204 °C
N#Cc1nn(-c2ccc(C=O)cc2)nc1-c1ccccc1	111 to 115 °C

Compound	melting point
ICCCCCOc1ccc(C2=C(c3ccccc3)CCCc3ccccc32)cc1	104 to 106 °C
O=C1Nc2ccccc2C(=O)N2CCCC12 (stereo unspecified)	174 °C
CC(C)Nc1ccc(C#Cc2cc(C(=O)Nc3ccc(CN4CCN(C)CC4)c(C(F)(F)F)c3)ccc2Cl)nn1	133 to 134 °C
O=C(c1ccc(F)cc1)C1CCN(CCN2CNc3ccccc3C2=O)CC1	203 °C
CC(O)N(C)C(=O)c1cc(C(C)(C)C)c(O)c(C(C)(C)C)c1 (stereo unspecified)	161 to 164 °C
CN(C)C(=O)c1cn(C)c2nc3cc(F)c(F)cc3cc2c1=O	324 °C
CC(=O)OC1CSC(Oc2cnc(Cl)c(Cl)c2)C(OC(C)=O)C1OC(C)=O (stereo unspecified)	128 °C
COCCc1nc2cnc3cc(Br)cnc3c2n1CC(C)(C)O	125 °C
CCCCCCC(Cc1ccc(OCCN2CCCCCC2)cc1)(C(=O)NO)S(=O)(=O)c1ccc(OC)cc1 (stereo unspecified)	65 °C
CN(Cc1cc2c(=O)c(C(=O)NCc3ccc(Cl)cc3)cn(C)c2o1)CC(O)c1cccs1 (stereo unspecified)	145 to 147 °C
CC(=O)C1CCC2C3CCC4=CC(=O)CCC4(C)C3C(Cl)CC12C (stereo unspecified)	185 to 188 °C
CC1(N)CN(c2c(F)cc3c(=O)c(C(=O)O)cn(-c4ccc(F)cc4)c3c2F)C1	272 to 277 °C
CC1(C)O[C@H](CC#N)C[C@H](CC(=O)N(c2ccccc2)c2ccccc2)O1	98 to 100 °C
CCc1nn(CCN)c(CC)c1Cc1cc(C#N)cc(C#N)c1	100 to 105 °C
COC(=O)C1=C(Cl)/C(=N/OS(C)(=O)=O)CC(c2ccc(Cl)c(OC)c2F)N1 (stereo unspecified)	64 to 66 °C
COc1nc(OC)c(C(C)C)c(C(=O)c2cc(Cl)cc(Cl)c2)n1	120 to 121 °C
CCOC(=O)C1=C(C)NC(N)=C(C(=O)OCC)C1c1ccccc1C(F)(F)F (stereo unspecified)	156 °C
CCS(=O)c1cccnc1S(=O)(=O)NC(C)(C)C (stereo unspecified)	129 to 131 °C
CC1(C)COC(=O)[C@H]1NC(=O)[C@@H](CC(=O)OCc1ccccc1)n1ccc(-c2ccc(-c3ccncc3)cc2)c1	175 to 177 °C
C[Si](C)(C)N1Cc2ccccc2P1(=O)c1ccccc1 (stereo unspecified)	90 to 94 °C

Other lines, results leading:

melting point	Compound
165 to 175 °C	COC(=O)CCC(=O)c1ccc2c(c1)CNC(=O)N2C
86 to 87 °C	CC(C)(C)OC(=O)NCCNC(=O)c1ncccc1Oc1ccccc1Cl
160 to 162 °C	CN(OCC(=O)O)C(=S)NC(c1ccccc1)c1ccccc1
81 to 82 °C	Cc1cccc(OCC(O)CNCCOc2ccccc2)c1 (stereo unspecified)
97 to 99 °C	CCOC(=O)c1nn(-c2ccc(C=O)cc2)nc1C
226 to 228 °C	C=CCOC(=O)c1cccc(C2=Nc3cc(C)c(-c4cccc(CF)c4)cc3NC(=O)C2)c1
110 to 113 °C	Cc1oc(-c2ccccc2)nc1CCOc1ccc(CO)cc1
155 to 156 °C	C=CCOC(=O)c1ccc(NC(=O)C(C(=O)OC)c2ccc3c(c2)C(C)(C)CCC3(C)C)cc1 (stereo unspecified)
160 to 161 °C	Cc1cc(CNC(=O)c2ccnc(-n3cnn(Cc4ccc(F)c(F)c4)c3=O)c2)no1
114 to 117 °C	COC(=O)CCc1cc(C(=O)c2ccc(OC)cc2)c(OC)cc1OC
205 to 207 °C	O=C(O)c1ccc(-c2nn(Cc3ccccc3)c3ccccc23)cc1
150 to 151 °C	COc1cc(C(=O)c2cccnc2)ccc1O
192 to 195 °C	O=C(Nc1ccc2c(c1)OCCO2)c1ccc(-c2cccs2)cc1
203 to 204 °C	COc1cc(C(=O)NNC(=O)c2occ(-c3ccccc3)c2-c2ccccc2)ccc1OCc1ccccc1
139 to 140 °C	CN1Cc2cccnc2N(c2cccc(Cl)c2)C1=O
75.2 to 76.3 °C	COC(=O)c1ccc(COc2cc3c(=O)ccn4c5ccc(Br)cc5c(c2)c34)nc1
125 °C	Cc1ccc(NCc2ccc(C(=O)Nc3ccccc3NC(=O)OC(C)(C)C)cc2)cc1Nc1nccc(-c2cccnc2)n1

melting point	Compound
69.5 to 70.1 °C	CCCCOc1ccccc1C(=O)C=Cc1cc(OC)cc(OC)c1
141 to 143 °C	CC(C)c1oc(-c2ccccc2)nc1CC(=O)O
40 to 42 °C	COc1ccc(Br)c(O)c1
252 °C	CCCCNC(=O)Nc1cccc2c1C(=O)c1c-2n[nH]c1-c1ccc(OC)cc1
217 to 219 °C	Cc1ccc(NC(=O)Nc2ccc(Oc3cc(Cl)ncn3)cc2)cc1
135 to 137 °C	O=C(O)c1ccnc(NC(=O)C(Cc2ccccc2)NP(=O)(O)O)c1 (stereo unspecified)
161 to 163 °C	COc1cc2c(Cl)c(C#N)cnc2c(OC)c1OC
50 to 51 °C	COC(=O)CCC(=O)c1ccccc1N
155 to 157 °C	CC(C)(C)OC(=O)N[C@@H](Cc1cncn1COCc1ccccc1)C(=O)O
183 to 185 °C	O=S1(=O)c2sccc2C(O)CN1Cc1ccncc1 (stereo unspecified)
186 to 188 °C	Cc1c(CC(=O)O)c2cc(O)ccc2n1C(=O)c1ccccc1
67 to 69 °C	CSc1ccc(N2CCc3ccccc32)c([N+](=O)[O-])c1
150 °C	CCc1nnc(-c2ccc(OC)cc2)n1-c1ccc(OC)c(OC)c1
197 to 200 °C	CCNC(=O)Nc1cn(-c2cccnc2)nc1C
64 to 67 °C	COC(=O)CSCCCCN(c1cnc(-c2ccccc2)c(-c2ccccc2)n1)C(C)C
298 to 302 °C	CCOC(=O)c1cc2c(cn1)[nH]c1cccc(C=Nc3ccccc3)c12
182 °C	COc1ccc(CCNC(=O)C(=O)Nc2ccncc2)cc1OC1CCCC1
